Measurements: publication PMC5760734, “Development of an oral once-weekly drug delivery system for HIV antiretroviral therapy” (Nature Communications, 2018)
pIC50: −log10 of the molar value. Where two headings read alike, the source gives them in different places.

Experiments:
[1] = Drug stability at high temperature (150 °C, 2 h), HPLC; assay type: physicochemical; conditions: 150 °C for 2 h
Experimental: To determine the drug stability at high temperatures, the drug was weighed in a 20 mL glass vial, and placed in a convection oven at 150 °C for 2 h. Drug was dissolved in methanol, and the concentration was compared to that of an unheated standard of the same initial concentration via HPLC.

[2] = Plasma pharmacokinetics of immediate release and gastric resident dosage forms in pigs; assay type: in vivo, Yorkshire pigs; conditions: for Tmax: female, Yorkshire, pig, plasma, oral, post-dose, read-out: time of maximum plasma concentration (converted); for duration of sustained drug concentrations: single dose
Experimental: All animal experiments were approved by the Committee on Animal Care at the Massachusetts Institute of Technology. In vivo pharmacokinetics were evaluated in an unblinded fashion in female Yorkshire pigs (50–95 kg) that were randomly assigned to the immediate release or sustained release groups. Animals were fed daily in the morning and in the evening with a diet consisting of pellets (Laboratory mini-pig growler diet, 5081), with a midday snack consisting of various fruits and vegetables. Specifically, the pellets were 5/32” x ¼” length, and consisted of ground oats, alfalfa meal, wheat middlings, soybean meal, dried beet pulp, salts and other micronutrients.
To determine the oral pharmacokinetics of immediate release dosage forms of DTG and CAB, 50 mg of DTG and 30 mg of CAB were weighed and filled into gelatine capsules. For RPV pharmacokinetics, RPV base was dissolved in poly(ethylene glycol) (molecular weight—400 Da) containing 10-fold molar excess of citric acid. The concentration of RPV base in this solution was 5 mg/mL and 5 mL of the solution was dosed in a gelatine capsule. […] To determine oral pharmacokinetics from gastric retentive dosage forms, the arms of dosage forms (2–3/pig containing 350 mg DTG, 175 mg RPV or 210 mg CAB) were folded into capsule shells immediately prior to dosing. […]. The capsules containing drug or dosage form were delivered into the intestine or stomach respectively. At various time points, blood samples (0.5 mL) were collected from a central line connected to the external jugular vein or from a mammary vein into […] Vacutainer gold top tubes (Becton, Dickinson and Co. USA). Plasma samples were separated from blood by centrifugation (1800g, 10 min at 4 °C) and were stored at −80 °C. Atropine can reduce gastric acid production and gastric motility which may affect the overall drug pharmacokinetics and the gastric retention of the dosage form. […]. Drug concentrations in the plasma were analysed using UPLC-MS/MS. Plasma samples (100 µL) were spiked with 200 µL acetonitrile solution of 250 µg/mL maraviroc (internal standard) to cause precipitation. Samples were vortexed and sonicated for 10–20 min and then centrifuged (21130g, 10 min). Two hundred microliters of solution were pipetted into a 96-well plate containing 200 µL of nanopure water. Finally, 2.5 μL was injected onto the UPLC–ESI–MS system for analysis.
UPLC separation was carried out on a Waters® UPLC aligned with a Waters® Xevo–TQ-SMS mass spectrometer (Waters Ltd., UK). MassLynx® 4.1 software was used for data acquisition and analysis. Liquid chromatography separation was performed on an Acquity® UPLC CSH C18 (50 × 2.1 mm, 1.7 μm particle size) column at 50 °C. The mobile phase consisted of acetonitrile spiked with 0.1% formic acid and 10 mM ammonium formate solution. The mobile phase was flowed at a rate of 0.6 mL/min using a time and solvent gradient composition. The initial composition (100% aqueous) was held for 1 min, following which the composition was changed linearly to 20% organic phase over the next 0.25 min. The composition was then brought to 100% organic over 1.25 min, held for 0.5 min and finally shifted to the initial composition and held constant until the end of the run for column equilibration. The total run time was 4 min and sample injection volume was 2.5 μL. The mass spectrometer was operated in the multiple reaction monitoring (MRM) mode. Sample introduction and ionization was by electrospray ionization (ESI) in the positive ion mode. DTG, RPV and CAB were analysed at mass-to-charge ratios of […] respectively. Stock solutions of DTG, RPV, CAB, and an internal standard maraviroc were prepared in methanol at a concentration of 500 μg/mL. A ten-point calibration curve was prepared ranging from 2.5–5000 ng/mL. Quality control samples were prepared in a similar procedure using an independent stock solution at three concentrations (5, 50 and 500 ng/mL). […]

[3] = humans receiving the usual oral dose; stated by Reviewer 1, no reference; cited from earlier work
[4] = Drug stability in simulated gastric fluid (SGF), HPLC; conditions: for stability in SGF: SGF pH ~1.2, 37 °C, 24 h, salt forms
Experimental: To determine drug stability at low pH, the drugs were dissolved in methanol to form a concentrated stock solution. Methanol solutions were then diluted 20-fold in simulated gastric fluid, USP without pepsin (pH ~1.2; henceforth referred to as SGF). Drug solutions were then placed in a shaker incubator (New Brunswick™ Innova® 44, Eppendorf, USA) at 37 °C and 150 r.p.m. At various times, aliquots were withdrawn and stored at −20 °C until analysis. Drug concentrations in the solution were analysed using HPLC and reported as percent of the initial concentrations.
The output signal was monitored and processed using ChemStation® software (Agilent Technologies Inc., USA). Chromatographic separation was carried out on a 50 mm × 4.6 mm EC-C18 Agilent Poroshell 120 analytical column with 2.7 µm spherical particles.
The injection volume was 5 µL, and the UV detection wavelength of 260 nm was selected.
For RPV, the stationary phase was maintained at 40 °C. The mobile phase consisted of methanol: water (pH 3.5 adjusted with 0.1% formic acid) (43:57 v/v) at a flow rate of 0.9 mL/min over a 10 min run time. The injection volume was 20 µL, and the UV detector was set at 290 nm.
For CAB, the column was maintained at 45 °C and the optimized mobile phase consisted of acetonitrile: water (pH 3.5 adjusted with 0.1% formic acid) (30:70 v/v) at flow rate of 0.8 mL/min over an 8 min run time. For analysis, 5 µL of the sample was injected on to the column, and the samples were analysed at a wavelength of 260 nm.
For tenofovir alafenamide, the column was maintained at 22 °C. The mobile phase consisted initially of acetonitrile: water (pH 3.5 adjusted with 0.1% formic acid) (100:0 v/v). […] The flow rate was 0.6 mL/min and the run time was 8 min. The injection volume was 10 µL, and the UV detection wavelength of 260 nm was selected.

[5] = tested on: drug-resistant HIV strains; conditions: cited from earlier work
[6] = parameters: method as in ref 58 (a number printed in a supplementary file, which may have a reference list of its own: not looked up in the article's list); conditions: cited from earlier work
[7] = tested on: HIV reference strain NL4-3; parameters: method as in ref 46,55–57 (a number printed in a supplementary file, which may have a reference list of its own: not looked up in the article's list); conditions: wild-type virus; cited from earlier work
[8] = pig, in vivo, po; cited from earlier work
[9] = immediate release formulation, pigs
[10] = immediate release formulation, pigs, n = 3

C[C@H]1CO[C@@H]2Cn3cc(C(=O)NCc4ccc(F)cc4F)c(=O)c(O)c3C(=O)N12 [CAB, cabotegravir]
stability at elevated temperature [1]: stable
Tmax [2, 9]: 6 h
average peak plasma concentration, fold lower than immediate release ([2]; gastric resident system vs immediate release, pigs): ~ 2.5 fold
average (sustained) plasma drug concentrations throughout the week following dosing ([2]; gastric resident system, pigs, n = 3): 200 to 500 ng/mL
duration of sustained drug concentrations ([2]; gastric resident system): up to 1 week
day at or after which no drug was detected in plasma [2, 9]: 3 days
time for which drug was detectable in plasma [2, 9]: up to 2 days
average maximum plasma concentration [2, 10]: ~1400 ng/mL
usual Cmax in humans [3]: 2800 ng/mL
stability in SGF [4]: stable

Cc1cc(/C=C/C#N)cc(C)c1Nc1ccnc(Nc2ccc(C#N)cc2)n1 [RPV, rilpivirine]
stability at elevated temperature [1]: stable
Fold change in IC50 (ρ) ([5]; mutation E138K/M184I): 3.20
Fold change in IC50 (ρ) ([5]; mutation E138K/M230L): 22.60
Fold change in IC50 (ρ) ([5]; mutation E138K): 2.30
Fold change in IC50 (ρ) ([5]; mutation K101E/E138K): 3.20
Fold change in IC50 (ρ) ([5]; mutation K101E/M184I): 5.80
Fold change in IC50 (ρ) ([5]; mutation K101E): 3.00
Fold change in IC50 (ρ) ([5]; mutation K101P): 102.13
Fractional change in slope (σ) ([5]; mutation K101P): -0.21
Fold change in IC50 (ρ) ([5]; mutation K103N): 1.23
Fractional change in slope (σ) ([5]; mutation K103N): 0.12
Fold change in IC50 (ρ) ([5]; mutation M184I): 1.50
Fold change in IC50 (ρ) ([5]; mutation M230L): 3.40
Fold change in IC50 (ρ) ([5]; mutation Y181C/Y188L): 30.20
Fold change in IC50 (ρ) ([5]; mutation Y181C): 1.72
Fractional change in slope (σ) ([5]; mutation Y181C): -0.48
Fold change in IC50 (ρ) ([5]; mutation Y181I): 152.91
Fractional change in slope (σ) ([5]; mutation Y181I): -0.10
Fold change in IC50 (ρ) ([5]; mutation Y181V): 31.00
Fold change in IC50 (ρ) ([5]; mutation Y188L): 6.00
Half-life, τ1/2 [6]: 50 h
Cmax ([6]; maximum plasma concentration at steady state, perfect adherence): 510 nM
Tmax ([2]; 175 mg, gastric resident dosage form, pigs): 24 h
maintenance of plasma concentrations ([2]; gastric resident dosage form, pigs, entirety of the study): comparable to the Cmax were maintained for the entirety of the study
duration of sustained drug concentrations ([2]; gastric resident system): up to 1 week
time for plasma concentration to drop below the limit of detection [2, 9]: ≤ 2 days
average maximum plasma concentration [2, 10]: ~25 ng/mL
pIC50 [7]: 6.98
m (slope parameter of Hill curve) [7]: 1.83
usual Cmax in humans [3]: 200 ng/mL
stability in SGF [4]: stable

CC(C)OC(=O)[C@H](C)N[P@](=O)(CO[C@H](C)Cn1cnc2c(N)ncnc21)Oc1ccccc1 [TAF, tenofovir alafenamide]
drug remaining stable ([4]; after 10 h of incubation in SGF, 37 °C): 10%

C[C@]12C=CC(=O)C=C1CC[C@@H]1[C@@H]2[C@@H](O)C[C@@]2(C)[C@H]1CC[C@]2(O)C(=O)CO [prednisolone]
concentrations achieved in pigs relative to those observed in humans [8]: about one tenth
